# Reference: patent US20110039893A1, “GSK-3BETA INHIBITOR” (Takeda Pharmaceutical Company Limited, priority 2006, published 2011)
# Molecular target: T1, recombinant GSK-3β enzyme (Homo sapiens, UniProt P49841)
# T1 construct: FLAG (N); made in house; host or cells: Sf-21 insect cells, recombinant baculovirus (pFASTBAC1, BAC-TO-BAC)
# Experiment: GSK-3β inhibitory activity evaluation (Kinase Glo luminescence, recombinant enzyme)
# Format: biochemical
# Conditions: recombinant human GSK-3β 100 ng, glycogen synthase-derived substrate peptide, 2.5 μM ATP solution, 30 min room temperature
# Experimental: Human GSK-3β gene was cloned by PCR using human brain cDNA (Clontech; trade name: QUICK-Clone cDNA) as a template and a primer set (GSK3β-U: 5′-[…] CTT-3′ (SEQ ID NO: 1) and GSK3β-L: 5′-[…]-3′ (SEQ ID NO: 2)) prepared by reference to the base sequence of GSK-3β gene registered under an accession No. NM_002093 in the GenBank.
# PCR was performed according to the protocol attached to KOD plus DNA polymerase (TOYOBO CO., LTD.). The obtained PCR product was subjected to agarose gel (1%) electrophoresis, and DNA fragment (1.2 kb) containing GSK-3β gene was recovered from the gel, and digested with restriction enzymes EcoR I and Sal I. DNA after treatment with restriction enzymes was subjected to agarose gel (1%) electrophoresis, and the obtained DNA fragment was recovered, and ligated to plasmid pFASTBAC1 (Invitrogen) digested with restriction enzymes EcoR I and Sal I to give expression plasmid pFB-GSK3β. The base sequence of the inserted fragment was confirmed to match the object sequence. Using BAC-TO-BAC Baculovirus Expression System (Invitrogen), virus stock BAC-GSK3β of recombinant Baculovirus was prepared.
# Sf-21 cells (Invitrogen) were inoculated to 150 ml Sf-900 II SEM medium (Invitrogen) containing 10% fetal bovine serum to 1×10^6 cells/ml and cultured at 27° C. for 24 hr. To the obtained culture medium was added the virus stock BAC-GSK3β of recombinant Baculovirus obtained above by 150 μl each, and the cells were further cultured for 60 hr. The culture medium was centrifuged (3000 rpm, 10 min) to separate the cells, and the cells were washed once with PBS. The cells were suspended in 10 ml of cell lysis buffer (25 mM HEPES (pH 7.5), 1% Triton X, 130 mM sodium chloride, 1 mM EDTA, 1 mM Dithiothreitol, 25 mM β-glycerophosphate, Protease inhibitor Complete (Boehringer), 1 mM sodium orthovanadate), treated 4 times in a homogenizer (POLYTRON) at 20000 rpm, 30 sec to disrupt the cells. The cell disrupt solution was centrifuged (40000 rpm, 45 min), and GSK-3β was purified from the obtained supernatant using Anti-FLAG M2 Affinity Gel (Sigma Ltd.).
# To 37.5 μl of a reaction solution (25 mM HEPES (pH 7.5), 10 mM magnesium acetate, 1 mM DTT, 0.01% bovine serum albumin (Wako Pure Chemical Industries, Ltd.)) containing recombinant GSK-3β enzyme (100 ng) obtained above and substrate peptide ([…]pSEDEEE (SEQ ID NO: 3), pS is phosphorylated serine) (100 ng) derived from glycogen synthase was added a test compound (2.5 μl) dissolved in DMSO, and the mixture was incubated at room temperature for 5 min. To the obtained mixture was added ATP solution (2.5 μM ATP, 10 μl), and the mixture was reacted at room temperature for 30 min. After the reaction, the reaction was quenched by adding 50 μL of Kinase Glo Reagent (Promega) to the reaction solution. After reaction at room temperature for 10 min, the luminescence amount was measured using an ARVO multilabel counter (PerkinElmer Life Sciences). The concentration of the test compound necessary for inhibiting the luminescence amount by 50% (IC50 value) was calculated by PRISM 3.0 (Graphpad software).
# T1 sequence (P49841 whole entry): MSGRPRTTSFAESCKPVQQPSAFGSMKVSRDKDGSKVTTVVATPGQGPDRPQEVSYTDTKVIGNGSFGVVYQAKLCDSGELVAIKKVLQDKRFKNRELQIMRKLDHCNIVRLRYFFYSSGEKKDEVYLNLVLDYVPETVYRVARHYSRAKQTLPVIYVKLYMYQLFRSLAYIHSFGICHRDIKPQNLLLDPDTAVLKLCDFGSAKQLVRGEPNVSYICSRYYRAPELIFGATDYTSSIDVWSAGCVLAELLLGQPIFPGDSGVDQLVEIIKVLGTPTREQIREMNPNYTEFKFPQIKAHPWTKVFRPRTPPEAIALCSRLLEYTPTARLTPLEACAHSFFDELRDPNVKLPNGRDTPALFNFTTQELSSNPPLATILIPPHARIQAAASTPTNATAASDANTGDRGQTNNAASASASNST
row,IC50 [nM],Compound
1,190,"O=C(NCc1cccnc1)Nc1cc(N2CC(c3ccccc3)CC2=O)ccn1 (centres unmarked) [Example 7, N-(4-(2-oxo-4-phenylpyrrolidin-1-yl)pyridin-2-yl)-N′-(pyridin-3-ylmethyl)urea]"
2,280,"O=C(NCc1ccc2c(c1)OCO2)Nc1cc(N2CC(c3ccccc3)CC2=O)ccn1 (centres unmarked) [Example 13, N-(1,3-benzodioxol-5-ylmethyl)-N′-(4-(2-oxo-4-phenylpyrrolidin-1-yl)pyridin-2-yl)urea]"
3,100,"O=C(NCc1ccccn1)Nc1cc(N2CC(c3cccc(F)c3)CC2=O)ccn1 (centres unmarked) [Example 29, N-(4-(4-(3-fluorophenyl)-2-oxopyrrolidin-1-yl)pyridin-2-yl)-N′-(pyridin-2-ylmethyl)urea]"
4,< 100,"O=C(NCc1ccccn1)Nc1cc(N2CC(Cc3ccccc3)CC2=O)ccn1 (centres unmarked) [Example 34, N-(4-(4-benzyl-2-oxopyrrolidin-1-yl)pyridin-2-yl)-N′-((pyridin-2-yl)methyl)urea]"
5,< 100,"O=C(NCc1ccccn1)Nc1cc(N2CC(CCc3ccccc3)CC2=O)ccn1 (centres unmarked) [Example 37, N-(4-(2-oxo-4-(2-phenylethyl)pyrrolidin-1-yl)pyridin-2-yl)-N′-(pyridin-2-ylmethyl)urea]"
6,< 100,"O=C(NCc1ccccn1)Nc1cc(N2CC(COc3ccccc3)OC2=O)ccn1 (centres unmarked) [Example 45, N-(4-(2-oxo-5-(phenoxymethyl)-1,3-oxazolidin-3-yl)pyridin-2-yl)-N′-(pyridin-2-ylmethyl)urea]"
7,< 100,"O=C(NCc1ccccn1)Nc1cc(-n2cc(-c3ccccc3)oc2=O)ccn1 [Example 47, N-(4-(2-oxo-5-phenyl-1,3-oxazol-3(2H)-yl)pyridin-2-yl)-N′-(pyridin-2-ylmethyl)urea]"
8,< 100,"O=C(NCc1ccccn1)Nc1cc(N2CC(c3cccs3)OC2=O)ccn1 (centres unmarked) [Example 48, N-(4-(2-oxo-5-(2-thienyl)-1,3-oxazolidin-3-yl)pyridin-2-yl)-N′-(pyridin-2-ylmethyl)urea]"
9,< 100,"CC1(c2ccccc2)CN(c2ccnc(NC(=O)NCc3ccccn3)c2)C(=O)O1 (centres unmarked) [Example 49, N-(4-(5-methyl-2-oxo-5-phenyl-1,3-oxazolidin-3-yl)pyridin-2-yl)-N′-(pyridin-2-ylmethyl)urea]"
10,< 100,"O=C(NCc1ccccn1)Nc1cc(N2CC3(CCCCC3)CC2=O)ccn1 [Example 54, N-(4-(3-oxo-2-azaspiro[4.5]dec-2-yl)pyridin-2-yl)-N′-(pyridin-2-ylmethyl)urea]"
11,< 100,"O=C(NCc1ccccn1)Nc1cc(-n2c(=O)oc3ccccc32)ccn1 [Example 64, N-(4-(2-oxo-1,3-benzoxazol-3(2H)-yl)pyridin-2-yl)-N′-(pyridin-2-ylmethyl)urea]"
12,< 100,"Cc1ccc2oc(=O)n(-c3ccnc(NC(=O)NCc4ccccn4)c3)c2c1 [Example 66, N-(4-(5-methyl-2-oxo-1,3-benzoxazol-3(2H)-yl)pyridin-2-yl)-N′-(pyridin-2-ylmethyl) urea]"
13,160,"O=C(CCc1ccccn1)Nc1cc(N2CC(c3ccccc3)OC2=O)ccn1 (centres unmarked) [Example 76, N-(4-(2-oxo-5-phenyl-1,3-oxazolidin-3-yl)pyridin-2-yl)-3-(pyridin-2-yl)propanamide]"
14,190,"O=C(CCc1cccnc1)Nc1cc(N2CC(c3ccccc3)OC2=O)ccn1 (centres unmarked) [Example 77, N-(4-(2-oxo-5-phenyl-1,3-oxazolidin-3-yl)pyridin-2-yl)-3-(pyridin-3-yl)propanamide]"

# Further lines, the compound ahead of its results:
row,Compound,IC50 [nM]
1,"O=C(NCc1ccccn1)Nc1cc(N2CC(c3ccccc3)CC2=O)ccn1 (single isomer, unassigned; (-)) [Example 5, (−)-N-(4-(2-oxo-4-phenylpyrrolidin-1-yl)pyridin-2-yl)-N′-(pyridin-2-ylmethyl)urea]",< 100
2,"O=C(NCc1ccccn1)Nc1cc(N2CC(c3ccccc3)CC2=O)ccn1 (centres unmarked) [Example 4, N-(4-(2-oxo-4-phenylpyrrolidin-1-yl)pyridin-2-yl)-N′-(pyridin-2-ylmethyl)urea]",< 100
3,"COc1ccc(C2CC(=O)N(c3ccnc(NC(=O)NCc4ccccn4)c3)C2)cc1 (centres unmarked) [Example 21, N-(4-(4-(4-methoxyphenyl)-2-oxopyrrolidin-1-yl)pyridin-2-yl)-N′-(pyridin-2-ylmethyl)urea]",120
4,"O=C(NCc1ccccn1)Nc1cc(N2CC(c3cccc(C(F)(F)F)c3)CC2=O)ccn1 (centres unmarked) [Example 25, N-(4-(2-oxo-4-(3-(trifluoromethyl)phenyl)pyrrolidin-1-yl)pyridin-2-yl)-N′-(pyridin-2-ylmethyl)urea]",100
5,"O=C(NCc1ccccn1)Nc1cc(N2CC(c3ccccc3)OC2=O)ccn1 (centres unmarked) [Example 42, N-(4-(2-oxo-5-phenyl-1,3-oxazolidin-3-yl)pyridin-2-yl)-N′-(pyridin-2-ylmethyl)urea]",< 100
6,"O=C(NCc1ccccn1)Nc1cc(N2CC(Cc3ccccc3)OC2=O)ccn1 (centres unmarked) [Example 43, N-(4-(5-benzyl-2-oxo-1,3-oxazolidin-3-yl)pyridin-2-yl)-N′-(pyridin-2-ylmethyl)urea]",< 100
7,"O=C(NCc1ccccn1)Nc1cc(N2CC(CCc3ccccc3)OC2=O)ccn1 (centres unmarked) [Example 44, N-(4-(2-oxo-5-(2-phenylethyl)-1,3-oxazolidin-3-yl)pyridin-2-yl)-N′-(pyridin-2-ylmethyl)urea]",< 100
8,"O=C(NCc1ccccn1)Nc1cc(N2CC(COCc3ccccc3)OC2=O)ccn1 (centres unmarked) [Example 46, N-(4-(5-((benzyloxy)methyl)-2-oxo-1,3-oxazolidin-3-yl)pyridin-2-yl)-N′-(pyridin-2-ylmethyl)urea]",< 100
9,"CC1CCN(c2ccnc(NC(=O)NCc3ccccn3)c2)C1=O (centres unmarked) [Example 51, N-(4-(3-methyl-2-oxopyrrolidin-1-yl)pyridin-2-yl)-N′-((pyridin-2-yl)methyl)urea]",< 100
10,"CC1CCC(=O)N1c1ccnc(NC(=O)NCc2ccccn2)c1 (centres unmarked) [Example 53, N-(4-(2-methyl-5-oxopyrrolidin-1-yl)pyridin-2-yl)-N′-((pyridin-2-yl)methyl)urea]",100
11,"CC1(C)C(=O)N(c2ccnc(NC(=O)NCc3ccccn3)c2)c2ccccc21 [Example 58, N-(4-(3,3-dimethyl-2-oxo-2,3-dihydro-1H-indol-1-yl)pyridin-2-yl)-N′-((pyridin-2-yl)methyl)urea]",< 100
12,"CC1(C)C(=O)N(c2ccnc(NC(=O)NCc3ccccn3)c2)c2cccnc21 [Example 59, N-(4-(3,3-dimethyl-2-oxo-2,3-dihydro-1H-pyrrolo[3,2-b]pyridin-1-yl)pyridin-2-yl)-N′-(pyridin-2-ylmethyl)urea]",< 100
13,"Cn1c(=O)n(-c2ccnc(NC(=O)NCc3ccccn3)c2)c2ccccc21 [Example 61, N-(4-(3-methyl-2-oxo-2,3-dihydro-1H-benzimidazol-1-yl)pyridin-2-yl)-N′-(pyridin-2-ylmethyl)urea]",< 100
14,"Cc1ccc2c(c1)oc(=O)n2-c1ccnc(NC(=O)NCc2ccccn2)c1 [Example 65, 1-(4-(6-methyl-2-oxo-1,3-benzoxazol-3(2H)-yl)pyridin-2-yl)-3-(pyridin-2-ylmethyl)urea]",< 100
15,"O=C(NCc1ccccn1)Nc1cc(NC(=O)c2ccccc2)ccn1 [Example 69, N-(2-(((pyridin-2-ylmethyl)carbamoyl)amino)pyridin-4-yl)benzamide]",< 100
16,"O=C(CCc1ccccn1)Nc1cc(N2CC(c3ccccc3)CC2=O)ccn1 (centres unmarked) [Example 75, N-(4-(2-oxo-4-phenylpyrrolidin-1-yl)pyridin-2-yl)-3-(pyridin-2-yl)propanamide]",220
17,"O=C(CCc1nc2ccccc2s1)Nc1cc(N2CC(c3ccccc3)OC2=O)ccn1 (centres unmarked) [Example 78, 3-(1,3-benzothiazol-2-yl)-N-(4-(2-oxo-5-phenyl-1,3-oxazolidin-3-yl)pyridin-2-yl)propanamide]",< 100
18,"O=C(Cc1cccs1)Nc1cc(N2CC(c3ccccc3)OC2=O)ccn1 (centres unmarked) [Example 79, N-(4-(2-oxo-5-phenyl-1,3-oxazolidin-3-yl)pyridin-2-yl)-2-(2-thienyl)acetamide]",230
